Earlier results on 1 compound are cited in patent US20130142871A1, “ORAL DOSAGE FORM OF DEFERASIROX” (Ratiopharm GmbH, priority 2010, published 2013).

For this data set the following is noted: see WO 2007/045445, page 2, third paragraph.

For `O=C(O)c1ccc(-n2nc(-c3ccccc3O)nc2-c2ccccc2O)cc1` [Deferasirox, 4-[(3Z,5E)-3,5-bis(6-oxo-1-cyclohexa-2,4-dienylidene)-1,2,4-triazolidine-1-yl]benzoic acid], the solubility in water result is reported as “poorly soluble in water”.
